# Test results from patent US20200216439A1, “HETERO-1,5,6,7-TETRAHYDRO-4H-INDOL-4-ONES” (BAYER PHARMA AKTIENGESELLSCHAFT, priority 2015, published 2020).
# Target: T1, catalytic domain of human Bub1 (amino acids 704-1085) (Homo sapiens, UniProt O43683)
# T1 construct: catalytic domain of human Bub1 (amino acids 704-1085); His6 (N); made in house; host or cells: Hi5 insect cells
# Experiment: Bub1 kinase assay (TR-FRET)
# Format: biochemical
# Conditions: TR-FRET; ATP 10 μM, peptide substrate 1 μM; 60 min at 22° C.; average or median if tested more than once; read-out: Inhibition of Bub1 kinase IC50
# Summary of the method: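 Eleven concentrations (0.1 nM–20 μM, duplicate) fitted by 4-parameter logistic for IC50. Read-out: EDTA-stopped TR-FRET (665/620 nm) detecting anti-phosphoserine binding to biotin-peptide (1 μM). Reaction used 10 μM ATP, 60 min at 22 °C, after 15 min compound preincubation with His-tagged human Bub1 704-1085.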
# T1 sequence (O43683 704-1085): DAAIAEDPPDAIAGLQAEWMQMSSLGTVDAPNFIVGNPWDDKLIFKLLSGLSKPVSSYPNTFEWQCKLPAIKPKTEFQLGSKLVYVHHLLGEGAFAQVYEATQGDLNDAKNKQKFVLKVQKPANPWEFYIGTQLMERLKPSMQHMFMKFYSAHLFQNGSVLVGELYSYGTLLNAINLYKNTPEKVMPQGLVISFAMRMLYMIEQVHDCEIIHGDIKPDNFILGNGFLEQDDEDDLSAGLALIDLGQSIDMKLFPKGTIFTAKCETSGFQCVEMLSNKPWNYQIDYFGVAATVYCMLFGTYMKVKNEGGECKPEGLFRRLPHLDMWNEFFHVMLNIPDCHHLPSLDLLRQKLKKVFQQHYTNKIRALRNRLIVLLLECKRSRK
row,IC50,SMILES
1,0.007 µM,"O=C1CN(S(=O)(=O)c2cnc[nH]2)Cc2[nH]c(-c3ccncc3)c(Nc3ccccc3)c21 [Example 72, 6-(1H-Imidazol-5-ylsulfonyl)-3-(phenylamino)-2-(pyridin-4-yl)-1,5,6,7-tetrahydro-4H-pyrrolo[2,3-c]pyridin-4-one]"
2,0.008 µM,"Cn1cnc(S(=O)(=O)N2CC(=O)c3c([nH]c(-c4ccncc4)c3Nc3ccccc3)C2)c1 [Example 73, 6-[(1-Methyl-1H-imidazol-4-yl)sulfonyl]-3-(phenylamino)-2-(pyridin-4-yl)-1,5,6,7-tetrahydro-4H-pyrrolo[2,3-c]pyridin-4-one]"
3,0.006 µM,"O=C1CN(S(=O)(=O)c2ccccn2)Cc2[nH]c(-c3ccncc3)c(Nc3ccccc3)c21 [Example 74, 3-(phenylamino)-2-(pyridin-4-yl)-6-(pyridin-2-ylsulfonyl)-1,5,6,7-tetrahydro-4H-pyrrolo[2,3-c]pyridin-4-one]"
4,0.006 µM,"O=C1CN(S(=O)(=O)c2cccnc2)Cc2[nH]c(-c3ccncc3)c(Nc3ccccc3)c21 [Example 75, 3-(phenylamino)-2-(pyridin-4-yl)-6-(pyridin-3-ylsulfonyl)-1,5,6,7-tetrahydro-4H-pyrrolo[2,3-c]pyridin-4-one]"
5,0.007 µM,"CCOC(=O)N1CC(=O)c2c([nH]c(-c3ccncc3)c2Nc2ccccc2)C1 [Example 76, Ethyl 4-oxo-3-(phenylamino)-2-(pyridin-4-yl)-1,4,5,7-tetrahydro-6H-pyrrolo[2,3-c]pyridine-6-carboxylate]"
6,0.011 µM,"CC(C)OC(=O)N1CC(=O)c2c([nH]c(-c3ccncc3)c2Nc2ccccc2)C1 [Example 77, Propan-2-yl 4-oxo-3-(phenylamino)-2-(pyridin-4-yl)-1,4,5,7-tetrahydro-6H-pyrrolo[2,3-c]pyridine-6-carboxylate]"
7,0.073 µM,"CC(C)(C)COC(=O)N1CC(=O)c2c([nH]c(-c3ccncc3)c2Nc2ccccc2)C1 [Example 78, 2,2-Dimethylpropyl 4-oxo-3-(phenylamino)-2-(pyridin-4-yl)-1,4,5,7-tetrahydro-6H-pyrrolo[2,3-c]pyridine-6-carboxylate]"
8,0.008 µM,"O=C1CN(C(=O)OCCF)Cc2[nH]c(-c3ccncc3)c(Nc3ccccc3)c21 [Example 79, 2-Fluoroethyl 4-oxo-3-(phenylamino)-2-(pyridin-4-yl)-1,4,5,7-tetrahydro-6H-pyrrolo[2,3-c]pyridine-6-carboxylate]"
9,0.011 µM,"COCCOC(=O)N1CC(=O)c2c([nH]c(-c3ccncc3)c2Nc2ccccc2)C1 [Example 80, 2-Methoxyethyl 4-oxo-3-(phenylamino)-2-(pyridin-4-yl)-1,4,5,7-tetrahydro-6H-pyrrolo[2,3-c]pyridine-6-carboxylate]"
10,0.004 µM,"CNC(=O)N1CC(=O)c2c([nH]c(-c3ccncc3)c2Nc2ccccc2)C1 [Example 81, N-Methyl-4-oxo-3-(phenylamino)-2-(pyridin-4-yl)-1,4,5,7-tetrahydro-6H-pyrrolo[2,3-c]pyridine-6-carboxamide]"
11,0.004 µM,CN(C)C(=O)N1CC(=O)c2c([nH]c(-c3ccncc3)c2Nc2ccccc2)C1 [Example 82]
12,0.012 µM,"O=C1CN(C(=O)NCC(F)F)Cc2[nH]c(-c3ccncc3)c(Nc3ccccc3)c21 [Example 83, N-(2,2-Difluoroethyl)-4-oxo-3-(phenylamino)-2-(pyridin-4-yl)-1,4,5,7-tetrahydro-6H-pyrrolo[2,3-c]pyridine-6-carboxamide]"
13,0.009 µM,"O=C1CN(C(=O)NC2CC2)Cc2[nH]c(-c3ccncc3)c(Nc3ccccc3)c21 [Example 84, N-Cyclopropyl-4-oxo-3-(phenylamino)-2-(pyridin-4-yl)-1,4,5,7-tetrahydro-6H-pyrrolo[2,3-c]pyridine-6-carboxamide]"
14,0.013 µM,"CC(C)(C)NC(=O)N1CC(=O)c2c([nH]c(-c3ccncc3)c2Nc2ccccc2)C1 [Example 85, N-tert-Butyl-4-oxo-3-(phenylamino)-2-(pyridin-4-yl)-1,4,5,7-tetrahydro-6H-pyrrolo[2,3-c]pyridine-6-carboxamide]"
15,0.011 µM,"COCCNC(=O)N1CC(=O)c2c([nH]c(-c3ccncc3)c2Nc2ccccc2)C1 [Example 86, N-(2-Methoxyethyl)-4-oxo-3-(phenylamino)-2-(pyridin-4-yl)-1,4,5,7-tetrahydro-6H-pyrrolo[2,3-c]pyridine-6-carboxamide]"
16,0.011 µM,"CSCCNC(=O)N1CC(=O)c2c([nH]c(-c3ccncc3)c2Nc2ccccc2)C1 [Example 87, N-[2-(Methylsulfanyl)ethyl]4-oxo-3-(phenylamino)-2-(pyridin-4-yl)-1,4,5,7-tetrahydro-6H-pyrrolo[2,3-c]pyridine-6-carboxamide]"
17,0.031 µM,"CS(=O)(=O)CCNC(=O)N1CC(=O)c2c([nH]c(-c3ccncc3)c2Nc2ccccc2)C1 [Example 89, N-[2-(Methylsulfonyl)ethyl]-4-oxo-3-(phenylamino)-2-(pyridin-4-yl)-1,4,5,7-tetrahydro-6H-pyrrolo[2,3-c]pyridine-6-carboxamide]"

row,IC50,SMILES
1,0.021 µM,"COCCOCCNC(=O)N1CC(=O)c2c([nH]c(-c3ccncc3)c2Nc2ccccc2)C1 [Example 90, N-[2-(2-Methoxyethoxy)ethyl]-4-oxo-3-(phenylamino)-2-(pyridin-4-yl)-1,4,5,7-tetrahydro-6H-pyrrolo[2,3-c]pyridine-6-carboxamide]"
2,0.014 µM,"O=C1CN(C(=O)N2CCNC2=O)Cc2[nH]c(-c3ccncc3)c(Nc3ccccc3)c21 [Example 91, 6-[(2-Oxoimidazolidin-1-yl)carbonyl]-3-(phenylamino)-2-(pyridin-4-yl)-1,5,6,7-tetrahydro-4H-pyrrolo[2,3-c]pyridin-4-one]"
3,0.004 µM,"O=C1CN(C(=O)N2CCCC2)Cc2[nH]c(-c3ccncc3)c(Nc3ccccc3)c21 [Example 92, 3-(phenylamino)-2-(pyridin-4-yl)-6-(pyrrolidin-1-ylcarbonyl)-1,5,6,7-tetrahydro-4H-pyrrolo[2,3-c]pyridin-4-one]"
4,0.004 µM,"O=C1CN(C(=O)N2CCCCC2)Cc2[nH]c(-c3ccncc3)c(Nc3ccccc3)c21 [Example 93, 3-(phenylamino)-6-(piperidin-1-ylcarbonyl)-2-(pyridin-4-yl)-1,5,6,7-tetrahydro-4H-pyrrolo[2,3-c]pyridin-4-one]"
5,0.003 µM,"O=C1CN(C(=O)N2CCOCC2)Cc2[nH]c(-c3ccncc3)c(Nc3ccccc3)c21 [Example 94, 6-(Morpholin-4-ylcarbonyl)-3-(phenylamino)-2-(pyridin-4-yl)-1,5,6,7-tetrahydro-4H-pyrrolo[2,3-c]pyridin-4-one]"
6,0.009 µM,"CN1CCN(C(=O)N2CC(=O)c3c([nH]c(-c4ccncc4)c3Nc3ccccc3)C2)CC1 [Example 95, 6-[(4-Methylpiperazin-1-yl)carbonyl]-3-(phenylamino)-2-(pyridin-4-yl)-1,5,6,7-tetrahydro-4H-pyrrolo[2,3-c]pyridin-4-one]"
7,0.055 µM,"O=C1CN(C(=O)NC2CCOCC2)Cc2[nH]c(-c3ccncc3)c(Nc3ccccc3)c21 [Example 96, 4-Oxo-3-(phenylamino)-2-(pyridin-4-yl)-N-(tetrahydro-2H-pyran-4-yl)-1,4,5,7-tetrahydro-6H-pyrrolo[2,3-c]pyridine-6-carboxamide]"
8,0.059 µM,"O=C1CN(C(=O)Nc2cccnc2)Cc2[nH]c(-c3ccncc3)c(Nc3ccccc3)c21 [Example 97, 4-Oxo-3-(phenylamino)-N-(pyridin-3-yl)-2-(pyridin-4-yl)-1,4,5,7-tetrahydro-6H-pyrrolo[2,3-c]pyridine-6-carboxamide]"
9,0.016 µM,"N#CCN1CC(=O)c2c([nH]c(-c3ccncc3)c2Nc2ccccc2)C1 [Example 98, [4-Oxo-3-(phenylamino)-2-(pyridin-4-yl)-1,4,5,7-tetrahydro-6H-pyrolo[2,3-c]pyridin-6-yl]acetonitrile]"
10,0.205 µM,"Cc1cnccc1-c1[nH]c2c(c1Nc1ccccc1)C(=O)CN(C(=O)OC(C)(C)C)C2 [Example 99, tert-Butyl 2-(3-methylpyridin-4-yl)-4-oxo-3-(phenylamino)-1,4,5,7-tetrahydro-6H-pyrrolo[2,3-c]pyridine-6-carboxylate]"
11,0.026 µM,"CC(C)(C)OC(=O)N1CC(=O)c2c([nH]c(-c3ccncc3Br)c2Nc2ccccc2)C1 [Example 100, tert-Butyl 2-(3-bromopyridin-4-yl)-4-oxo-3-(phenylamino)-1,4,5,7-tetrahydro-6H-pyrrolo[2,3-c]pyridine-6-carboxylate]"
12,0.043 µM,"O=C1CNCc2[nH]c(-c3ccncc3F)c(Nc3ccccc3)c21 [Example 101, 2-(3-Fluoropyridin-4-yl)-3-(phenylamino)-1,5,6,7-tetrahydro-4H-pyrrolo[2,3-c]pyridin-4-one]"
13,0.017 µM,"COc1cnccc1-c1[nH]c2c(c1Nc1ccccc1)C(=O)CN(C(=O)OC(C)(C)C)C2 [Example 102, tert-Butyl 2-(3-methoxypyridin-4-yl)-4-oxo-3-(phenylamino)-1,4,5,7-tetrahydro-6H-pyrrolo[2,3-c]pyridine-6-carboxylate]"
14,0.138 µM,"COc1cnccc1-c1[nH]c2c(c1Nc1ccccc1)C(=O)CNC2 [Example 103, 2-(3-Methoxypyridin-4-yl)-3-(phenylamino)-1,5,6,7-tetrahydro-4H-pyrrolo[2,3-c]pyridin-4-one]"
15,0.009 µM,"COC(=O)N1CC(=O)c2c([nH]c(-c3ccncc3OC)c2Nc2ccccc2)C1 [Example 104, Methyl 2-(3-methoxypyridin-4-yl)-4-oxo-3-(phenylamino)-1,4,5,7-tetrahydro-6H-pyrrolo[2,3-c]pyridine-6-carboxylate]"
16,0.012 µM,"COc1cnccc1-c1[nH]c2c(c1Nc1ccccc1)C(=O)CN(C(C)=O)C2 [Example 105, 6-Acetyl-2-(3-methoxypyridin-4-yl)-3-(phenylamino)-1,5,6,7-tetrahydro-4H-pyrrolo[2,3-c]pyridin-4-one]"
